Data as given in patent EP0969854B1, “INHIBITION OF SIGNAL TRANSDUCTION BY THE BINDING OF NON-PHOSPHORYLATED COMPOSITIONS” (GEORGETOWN UNIVERSITY, priority 1996, dated 2006).
Bridge positions count the residues as written; N and C are the ends. Ends that are not written are not given here.

B1: G1 peptide (… [disulfide bonded]) (peptide)
peptide: CELYENVGMYC
modifications: disulfide 1-11

What was measured:
cell proliferation = settings: cited from earlier work
Grb2 SH2 domain = experiment: Surface plasmon resonance (Biacore): inhibition of GST-Grb2 binding to immobilised SHC phosphopeptide; settings: for inhibition of Grb2 binding to the SHC phosphopeptide: peptide at 50 µM; for inhibiting activity: peptide at 500 µM
Description: The G1 peptide (CELYENVGMYC [disulfide bonded]) was used as an inhibitor of the interaction of the Grb2 with a SHC phosphopeptide in surface plasmon resonance (Biacore) experiments. The SHC phosphopeptide was attached to the solid surface by incorporation of a biotin at the N-terminus as described in Pelicci, G., et al., "The motogenic and mitogenic responses to HGF are amplified by the Shc adaptor protein," Oncogene, 10: 1631-1638, 1995. This biotinylated phospho-SHC peptide was then bound to the streptavidin on the surface of SA5 chips (Pharmacia-Biacore). The binding was conducted at a 2nM and 5 µl/minute for 10 minutes. The peptides were mixed with 200 nM GST-Grb2 in HBS buffer (Pharmacia Biacore) and allowed to bind for 10 minutes at a flow rate of 5 µl/minute. The Ru change at equilibrium was calculated and the percent of control (no added peptide) binding was calculated.
The G1 peptide was compared to SHC phosphopeptide (DDPSpYVNVQ), G1C-S (SELYENVGMYS), which is similar to G1 but wherein the cysteines are replaced with serines, and SHC control peptide (DDPSYVNVQ), in which the tyrosine is not phosphorated.
Songyang et al. Mol. Cell Biol., 14:2777-2785 (1994). The requirement of these amino acids in the G1 peptide sequence was tested by synthesizing peptides with alanine substitutions at these positions. G1.4Y-A contains an alanine substitution in place of the tyrosine at position 4 (CELAENVGMYC) and G16N-A contains an alanine substitution for the asparagine at position 6 (CELYEAVGMYC). […] The binding of peptide to the Grb2 SH2 domain was measured by surface plasmon resonance (Pharmacia Biacore). The percent inhibition was calculated by comparison of the Rueq in the presence of peptide with the Rueq with no inhibiting peptide present.

[1] = target: intact GST-Grb2 fusion protein (UniProt P62993); experiment: SPR competition in solution, SHC phosphopeptide and G1 for GST-Grb2 compared directly (Figure 6)
Sequence of UniProt P62993 (P62993 whole entry, the tested form may be a part): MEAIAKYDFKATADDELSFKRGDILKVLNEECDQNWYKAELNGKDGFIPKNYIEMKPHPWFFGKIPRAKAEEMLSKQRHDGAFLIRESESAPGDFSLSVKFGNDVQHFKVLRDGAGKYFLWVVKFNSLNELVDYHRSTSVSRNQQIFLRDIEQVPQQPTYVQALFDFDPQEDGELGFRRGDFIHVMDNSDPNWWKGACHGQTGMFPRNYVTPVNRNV

Molecule | block of cell proliferation (cell proliferation) | inhibition of Grb2 binding to the SHC phosphopeptide (Grb2 SH2 domain) | inhibiting activity (Grb2 SH2 domain) | fold difference in affinity against SHC phosphopeptide [1] [fold]
AcpYEEIE | lack of effect | – | – | –
CELYEAVGMYC [G16N-A, alanine substitution for the asparagine at position 6] | – | No inhibition | limited activity | –
CELAENVGMYC [G1.4Y-A, alanine substitution in place of the tyrosine at position 4] | – | No inhibition | limited activity | –
B1 | – | – | – | 10
